Measured values: EP1985629A1, “Pro-apoptotic molecules and therapeutic uses thereof” (UNIVERSITA DEGLI STUDI DI GENOVA, priority 2007, dated 2008)
Marks after values point to notes of the source that are not given here. Where a SMILES comes first, the peptide text is derived from it. [ ]: non-standard residue; d: D form. Aib = CC(C)(N)C(=O)O

Assays:
Format in all cases: cell-based, human
[1] = test system: ALL: acute lymphoid leukaemia; experiment: Ex vivo bone marrow cells, flow cytometry DNA/SSC analysis of apoptosis; conditions: analysed day 4
Experimental: (§1) For experiments with primary cells of acute lymphoblastic leukaemia (ALL), […] Acute Myeloid Leukaemia (AML), fresh samples of bone marrow aspirates were from patients who had at least 80% blasts among their mononuclear cells. Normal hematopoietic cells (NBM) were obtained from healthy volunteers. Mononuclear cells were isolated from the samples by Ficoll density-gradient centrifugation. Primary cells were cultured as above. The collection of human specimens was performed after informed consent of the patient during diagnostic procedure. Viability was determined by Facs analysis: PI emission fluorescence.
(§2) Cells were harvested and incubated with 30 µg/ml PI (Sigma Chemical Co.) and 0.5 mg/ml RNase for 30 min at room temperature and in the dark. Flow cytometric measurements of Forward Scatter (FSC) and Side Scatter (SSC) of light emitted from the excitation laser, and of PI emission fluorescence, were performed on a FACSCalibur (Becton Dickinson) flow cytometer. At least 10,000 events were acquired on a linear scale from each sample. Frequency distributions of DNA content and SSC were analysed for the evaluation of apoptosis at different apoptotic stages and cell cycle phases, as previously described.
(§3) Bone marrow aspirates from patients with different leukaemia types were plated in tissue culture medium supplemented with 20% FCS, treated with 072RB twice every 48 h, and followed for 4 days. They were evaluated by flow cytometry DNA/SSC analysis, In Table 3 we show the percentage of [early + late apoptotic cells], according to leukaemia type and Int or 072RB dosage. To further study sensitivity to 072RB of normal cells, peripheral blood lymphocytes (PBL) isolated from four independent healthy donors were subjected to a four-days treatment with 10 µM 072RB. Treatment was performed, as usual, with two pulses at a 48 h interval. Lymphocytes were either un-stimulated or activated by PHA. […] Comparing treated and untreated normal peripheral lymphocytes, the ratio of viable cells between the two groups was 0.87 ± 0.05 (mean ± SE) for quiescent lymphocytes and 0.82 ± 0.057 for proliferating lymphocytes. This effect of 072RB on normal lymphocytes seems especially small if we consider the effects observed in leukaemia cell lines (see supplementary information), and also the effects observed in AML cells from ex vivo experiments: 0.55 ± 0.145 (mean ± SE). Table 3: Effect of 072RB on haematological malignancies (AML: acute myeloid leukaemia; ALL: acute lymphoid leukaemia; NBM: normal bone marrow): percentage of early/late apoptotic cells. Mean values from duplicate experiments are reported. The difference between the two individual values never exceeded 15% of the mean value. Ex vivo isolated cells were treated with either Int or 072RB at day 0, 2 (5, 10 µM), at day 0, 1, 2, 3 (1, 3 µM) and analysed after PI staining at day 4.

[2] = test system: AML: acute myeloid leukaemia; experiment: as above; conditions: for percentage of early/late apoptotic cells: AML, analysed day 4
Experimental: as §1, §2, §3

NBM: normal bone marrow = experiment: as above; conditions: analysed day 4
Experimental: as §1, §2, §3

caspase 9 = experiment: Caspase 9 activation (FITC-LEHD-FMK, FACS analysis); conditions: 48 h
Experimental: (§4) The activation of caspase-9 (mitochondrial apoptosis) and caspase-3 (activated downstream of caspase-9), was evaluated in cell lines (10^6 cells/well in a 24 wells plate) incubated with different concentrations of 072RB (1, 10 µM for 24h, 48h and 72h, in complete RPMI medium + 10% FCS at 37°C, using the caspase-9 and caspase-3 Detection Kit (Calbiochem, Darmstadt, Germany). The assay utilizes LEHD-FMK or DEVD-FMK conjugated to fluorescein-isothiocyanate (FITC) as caspase-9 or caspase-3 in situ marker. FITC-LEHD-FMK and FITC-DEVD-FMK are cell permeable, non toxic, and irreversibly bind only to activated caspase-9 or -3 in apoptotic cells. Samples were run on a flow cytometer (FACSort, Becton Dickinson) equipped with an argon ion laser exiting FITC at 488nm, At least 10^5 events were analysed for each sample using the CellQuest computer program. Data are expressed as Log green fluorescence intensity (a.u.) vs cell number. Calibration was assessed with CALIBRITE particles (Becton Dickinson) using the AutoCOMP computer program.
(§5) Cells were incubated for 24, 48 and 72 h with 072RB (10 µM) or Int (10 µM), together with FITC-LEDH-FMK or FITC-DEVD-FMK, to detect caspase 9 and caspase 3 activation, respectively (FACS analysis). […] Furthermore, caspase 3, a downstream substrate of caspase 9, was progressively activated at increasing incubation times with 072RB. After 24 h of incubation 30% of U937, 35% of Namalwa, 22% of Jurkat cells, respectively, were positive for activated caspase 3; after 72 h of incubation 70% of U937, 60% of Namalwa, and 35% of Jurkat cells, respectively, had activated caspase 3. On the contrary, a negligible fraction of cells incubated with the Int peptide (1-3%), a % similar to that observed in untreated cells, expressed activated caspase 3.

caspase 3 = experiment: Caspase 3 activation (FITC-DEVD-FMK, FACS analysis); conditions: for cells positive for activated caspase 3: 24 h; for cells with activated caspase 3: 72 h
Experimental: as §4, §5

[3] = ALL, Pro-B (control 32), 5 µM at day 0, 2
[4] = ALL, Pro-B (control 32), 10 µM at day 0, 2
[5] = FAB M0 (control 33), 5 µM at day 0, 2
[6] = FAB M0 (control 33), 10 µM at day 0, 2
[7] = FAB M3 (control 23), 5 µM at day 0, 2
[8] = FAB M3 (control 23), 10 µM at day 0, 2
[9] = NBM sample with control 15, treated with 15 µM (footnote *), printed in the 10 µM column
[10] = NBM sample with control 39, 10 µM at day 0, 2

Compound: KKWKMRRNPFWIKIQR [Int, internalisation tag, a modified Q50P 16 aa Antennapedia IIIrd α-helix, reference compound]
- percentage of early/late apoptotic cells [1, 3]: 32 percentage
- percentage of early/late apoptotic cells [1, 4]: 43 percentage
- percentage of early/late apoptotic cells [2, 5]: 32 percentage
- percentage of early/late apoptotic cells [2, 6]: 38 percentage
- percentage of early/late apoptotic cells [2, 7]: 26 percentage
- percentage of early/late apoptotic cells [2, 8]: 28 percentage
- percentage of early/late apoptotic cells (NBM: normal bone marrow; [9]): 18* percentage
- percentage of early/late apoptotic cells (NBM: normal bone marrow; [10]): 37 percentage
- fraction of cells expressing activated caspase 9 (caspase 9; Jurkat, 10 µM): 1.3%
- fraction of cells expressing activated caspase 9 (caspase 9; Namalwa, 10 µM): 2.0%
- fraction of cells expressing activated caspase 9 (caspase 9; U937, 10 µM): 1.5%
- fraction of cells expressing activated caspase 3 (caspase 3; 10 µM, cell line and time not specified, similar to untreated cells): 1-3%

Compound: CC[C@H](C)[C@H](NC(=O)[C@H](CCCNC(=N)N)NC(=O)[C@H](CCCNC(=N)N)NC(=O)[C@H](CC(C)C)NC(=O)[C@H](CCC(=O)O)NC(=O)[C@H](CCC(N)=O)NC(=O)C(C)(C)NC(=O)[C@@H](NC(=O)[C@H](Cc1ccc(O)cc1)NC(=O)[C@@H](NC(=O)[C@H](CCC(=O)O)NC(=O)[C@@H]1CCCN1C(=O)[C@H](CCCNC(=N)N)NC(=O)[C@H](CCSC)NC(=O)[C@@H](N)CC(=O)O)[C@@H](C)CC)[C@@H](C)CC)C(=O)NCC(=O)N[C@@H](CC(=O)O)C(=O)N[C@@H](C)C(=O)N[C@@H](Cc1ccccc1)C(=O)N[C@@H](CC(N)=O)C(=O)NC(C)(C)C(=O)N[C@@H](Cc1ccc(O)cc1)C(=O)N[C@@H](CCCCN)C(=O)N[C@@H](CCCCN)C(=O)N[C@@H](Cc1c[nH]c2ccccc12)C(=O)N[C@@H](CCCCN)C(=O)N[C@@H](CCSC)C(=O)N[C@@H](CCCNC(=N)N)C(=O)N[C@@H](CCCNC(=N)N)C(=O)N[C@@H](CC(N)=O)C(=O)N1CCC[C@H]1C(=O)N[C@@H](Cc1ccccc1)C(=O)N[C@@H](Cc1c[nH]c2ccccc12)C(=O)N[C@H](C(=O)N[C@@H](CCCCN)C(=O)N[C@H](C(=O)N[C@@H](CCC(N)=O)C(=O)N[C@@H](CCCNC(=N)N)C(N)=O)[C@@H](C)CC)[C@@H](C)CC [Peptide 072RB] (H-DMRPEIYI[Aib]QELRRIGDAFN[Aib]YKKWKMRRNPFWIKIQR-NH2; N-terminus and C-terminus assumed)
- percentage of early/late apoptotic cells ([1]; ALL sample with control 40, 5 µM at day 0, 2): 42 percentage
- percentage of early/late apoptotic cells ([1]; ALL sample with control 40, 10 µM at day 0, 2): 45 percentage
- percentage of early/late apoptotic cells ([1]; ALL sample with control 43, 5 µM at day 0, 2): 67 percentage
- percentage of early/late apoptotic cells ([1]; ALL sample with control 52, 5 µM at day 0, 2): 60 percentage
- percentage of early/late apoptotic cells ([1]; ALL sample with control 52, 10 µM at day 0, 2): 80 percentage
- percentage of early/late apoptotic cells [1, 3]: 56 percentage
- percentage of early/late apoptotic cells [1, 4]: 63 percentage
- ratio of viable cells, treated versus untreated ([2]; AML cells from ex vivo experiments, mean ± SE): 0.55 ± 0.145
- percentage of early/late apoptotic cells [2, 5]: 36 percentage
- percentage of early/late apoptotic cells [2, 6]: 42 percentage
- percentage of early/late apoptotic cells ([2]; FAB M0-M1 (control 14), 5 µM at day 0, 2): 22 percentage
- percentage of early/late apoptotic cells ([2]; FAB M0-M1 (control 14), 10 µM at day 0, 2): 40 percentage
- percentage of early/late apoptotic cells ([2]; FAB M2 (control 24), 5 µM at day 0, 2): 66 percentage
- percentage of early/late apoptotic cells [2, 7]: 64 percentage
- percentage of early/late apoptotic cells [2, 8]: 82 percentage
- percentage of early/late apoptotic cells ([2]; FAB M4-M5 (control 50), 5 µM at day 0, 2): 75 percentage
- percentage of early/late apoptotic cells ([2]; FAB M6 (control 15), 10 µM at day 0, 2): 67 percentage
- percentage of early/late apoptotic cells (NBM: normal bone marrow; [9]): 21* percentage
- percentage of early/late apoptotic cells (NBM: normal bone marrow; [10]): 39 percentage
- fraction of cells expressing activated caspase 9 (caspase 9; Jurkat, 10 µM): 10-33%
- fraction of cells expressing activated caspase 9 (caspase 9; Namalwa, 10 µM): 15-35%
- fraction of cells expressing activated caspase 9 (caspase 9; U937, 10 µM): 30-65%
- cells positive for activated caspase 3 (caspase 3; Jurkat, 10 µM): 22%
- cells with activated caspase 3 (caspase 3; Jurkat, 10 µM): 35%
- cells positive for activated caspase 3 (caspase 3; Namalwa, 10 µM): 35%
- cells with activated caspase 3 (caspase 3; Namalwa, 10 µM): 60%
- cells positive for activated caspase 3 (caspase 3; U937, 10 µM): 30%
- cells with activated caspase 3 (caspase 3; U937, 10 µM): 70%
